Measurements: patent US8017612B2, “Piperazine compound and use thereof as a HCV polymerase inhibitor” (priority 2006, dated 2011)
Structures can show the parent of a compound that is named as a salt.

What was measured:
[1] = biological target: T1, HCV polymerase (NS5B) type 1b (Hepatitis C virus genotype 1b, UniProt P26663); assay: Assay of enzyme (HCV polymerase) inhibitory activity, type 1b enzyme; assay type: biochemical, HCV BK strain (type 1b)
T1 construct: a region encoding NS5B (J Virol 1991 March, 65(3), 1105-13, 544 amino acids after deletion of 47 amino acids on the C-terminal); 6xHis (C); made in house; host or cells: Escherichia coli
Summary of the method: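 Rxn: NS5B 1b (BK, ΔC47, His6) 0.5 μg/ml; substrate RNA 5 μg/ml; ATP/GTP/CTP 50 μM, UTP 2 μM + [5,6-3H]UTP; 20 mM Tris pH 7.5, 5 mM MgCl2, 50 mM NaCl, 1 mM EDTA/DTT. 25 °C, 60 min. Stop with TCA/pyrophosphate, filter, scintillation count; IC50 vs. untreated.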

[2] = biological target: T2, HCV polymerase (NS5B) type 1a (Hepatitis C virus genotype 1a, UniProt P26664); assay: Assay of enzyme (HCV polymerase) inhibitory activity, type 1a enzyme; assay type: biochemical, HCV type 1a (cloned from the blood of patients)
T2 construct: made in house; host or cells: Escherichia coli (by the 'similar method' of the 1b enzyme)
Summary of the method: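 NS5B Δ47 C-term His6 (type 1a, 1.5 μg/ml); substrate RNA 5 μg/ml; ATP/GTP/CTP 50 μM, UTP 2 μM + [5,6-3H]UTP; Tris pH 7.5, MgCl2 5 mM; 25° C, 60 min. TCA/pyrophosphate stop, GF/B filter, scintillation. IC50 vs no-compound control.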

[3] = HCV polymerase inhibitory activity IC50, 1b, type 1b enzyme
[4] = HCV polymerase inhibitory activity IC50, 1a, type 1a enzyme
[5] = HCV polymerase inhibitory activity (IC50), 1b, type 1b enzyme 0.5 μg/ml, 25° C., 60 min
[6] = HCV polymerase inhibitory activity (IC50), 1a, type 1a enzyme 1.5 μg/ml, 25° C., 60 min

| Structure (SMILES) | IC50 [1, 3] | IC50 [2, 4] | IC50 [1, 5] | IC50 [2, 6] |
| --- | --- | --- | --- | --- |
| CCC(F)(F)c1ccc(CNC(=O)[C@H]2CN(C(=O)/C=C/C(=O)O)CCN2S(=O)(=O)c2ccc(OC(F)(F)F)cc2)cc1 [Example 667, (E)-4-[(R)-3-[4-(1,1-difluoro-propyl)-benzylcarbamoyl]-4-(4-trifluoromethoxy-benzenesulfonyl)-piperazin-1-yl]-4-oxo-but-2-enoic acid] | 0.1 to 1 µM | > 1 µM | – | – |
| CC(=O)N1CCN(S(=O)(=O)c2ccc(O)cc2)[C@@H](C(=O)NCc2ccc(C(C)C)cc2)C1 [Example 251, (R)-4-acetyl-1-(4-hydroxy-benzenesulfonyl)-piperazine-2-carboxylic acid 4-isopropyl-benzylamide] | – | – | > 1 µM | > 1 µM |
| CC(=O)N1CCN(S(=O)(=O)c2ccc(C(C)C)cc2)C(C(=O)NCc2ccc(N3CCCCC3)cc2)C1 (stereo not drawn) [Example 109, 4-acetyl-1-(4-isopropyl-benzenesulfonyl)-piperazine-2-carboxylic acid 4-piperidin-1-yl-benzylamide] | – | – | > 1 µM | > 1 µM |
| CC(=O)N1CCN(S(=O)(=O)c2ccc(C(F)(F)F)cc2)[C@@H](C(=O)NCc2ccc(C(C)C)cc2)C1 [Example 176, (R)-4-acetyl-1-(4-trifluoromethyl-benzenesulfonyl)-piperazine-2-carboxylic acid 4-isopropyl-benzylamide] | – | – | 0.1 to 1 µM | 0.1 to 1 µM |
| CC(C)c1ccc(CNC(=O)[C@H]2CN(C(N)=S)CCN2S(=O)(=O)c2ccc(C(F)(F)F)cc2)cc1 [Example 4, (R)-4-thiocarbamoyl-1-(4-trifluoromethyl-benzenesulfonyl)-piperazine-2-carboxylic acid 4-isopropyl-benzylamide] | – | – | 0.1 to 1 µM | 0.1 to 1 µM |
| CCC(F)(F)c1ccc(CNC(=O)[C@H]2CN(C(=O)Nc3ccnc(OC)c3)CCN2S(=O)(=O)c2ccc(OC(F)(F)F)cc2)cc1 [Example 490, (R)-4-(4-trifluoromethoxy-benzenesulfonyl)-piperazine-1,3-dicarboxylic acid 3-[4-(1,1-difluoro-propyl)-benzylamide] 1-[(2-methoxy-pyridin-4-yl)-amide]] | – | – | 0.1 to 1 µM | < 0.1 µM |
| CC(C)c1ccc(CNC(=O)[C@H]2CN(c3cc(C(=O)O)[nH]n3)CCN2S(=O)(=O)c2ccc(C(F)(F)F)cc2)cc1 [Example 426, 5-[(R)-3-(4-isopropyl-benzylcarbamoyl)-4-(4-trifluoromethyl-benzenesulfonyl)-piperazin-1-yl]-2H-pyrazole-3-carboxylic acid] | – | – | 0.1 to 1 µM | > 1 µM |
| CC(=O)N1CCN(S(=O)(=O)c2ccc(C(C)C)cc2)[C@@H](C(=O)NCCN2CCCCC2)C1 [Example 402, (R)-4-acetyl-1-(4-isopropyl-benzenesulfonyl)-piperazine-2-carboxylic acid (2-piperidin-1-yl-ethyl)-amide] | – | – | > 1 µM | > 1 µM |
| CC(C)c1ccc(CNC(=O)[C@H]2CN(c3cnc(C(=O)O)cn3)CCN2S(=O)(=O)c2ccc(C(F)(F)F)cc2)cc1 [Example 9, (R)-3-(4-isopropyl-benzylcarbamoyl)-4-(4-trifluoromethyl-benzenesulfonyl)-3,4,5,6-tetrahydro-2H-[1,2′]bipyrazinyl-5′-carboxylic acid] | – | – | < 0.1 µM | < 0.1 µM |
| CC(C)(C)c1ccc(CNC(=O)[C@H]2CN(c3cnc4cncnc4n3)CCN2S(=O)(=O)c2ccc(OC(F)(F)F)cc2)cc1 [Example 617, (R)-4-pteridin-7-yl-1-(4-trifluoromethoxy-benzenesulfonyl)-piperazine-2-carboxylic acid 4-tert-butyl-benzylamide] | – | – | < 0.1 µM | < 0.1 µM |
| CC(=O)N1CCN(S(=O)(=O)c2ccc(C(C)C)cc2)[C@H](C(=O)NCc2ccc(C(F)(F)F)cc2)C1 [Example 1117, (S)-4-acetyl-1-(4-isopropyl-benzenesulfonyl)-piperazine-2-carboxylic acid 4-trifluoromethyl-benzylamide] | > 1 µM | > 1 µM | – | – |
| CCC(F)(F)c1ccc(CNC(=O)[C@H]2CN(c3nc4ncncc4s3)CCN2S(=O)(=O)c2ccc(OC(F)(F)F)cc2)cc1 [Example 894, (R)-4-thiazolo[4,5-d]pyrimidin-2-yl-1-(4-trifluoromethoxy-benzenesulfonyl)-piperazine-2-carboxylic acid 4-(1,1-difluoro-propyl)-benzylamide] | < 0.1 µM | < 0.1 µM | – | – |
| O=C(NCc1ccc(OC(F)(F)F)cc1)[C@H]1CN(c2cnc3nccnc3n2)CCN1S(=O)(=O)c1ccc(OC(F)(F)F)cc1 [Example 749, (R)-4-pyrazino[2,3-b]pyrazin-2-yl-1-(4-trifluoromethoxy-benzenesulfonyl)-piperazine-2-carboxylic acid 4-trifluoromethoxy-benzylamide] | < 0.1 µM | < 0.1 µM | – | – |
| O=C(NCc1ccc(OC(F)(F)F)cc1)[C@H]1CN(c2nc3nc(Cl)[nH]c(=O)c3s2)CCN1S(=O)(=O)c1ccc(OC(F)(F)F)cc1 [Example 963, (R)-4-(5-chloro-7-oxo-6,7-dihydro-thiazolo[4,5-d]pyrimidin-2-yl)-1-(4-trifluoromethoxy-benzenesulfonyl)-piperazine-2-carboxylic acid 4-trifluoromethoxy-benzylamide] | < 0.1 µM | < 0.1 µM | – | – |
| O=C(O)c1ncc2sc(N3CCN(S(=O)(=O)c4ccc(OC(F)(F)F)cc4)[C@@H](C(=O)NCc4ccc(OC(F)(F)F)cc4)C3)nc2n1 [Example 1033, 2-[(R)-4-(4-trifluoromethoxy-benzenesulfonyl)-3-(4-trifluoromethoxy-benzylcarbamoyl)-piperazin-1-yl]-thiazolo[4,5-d]pyrimidine-5-carboxylic acid] | < 0.1 µM | < 0.1 µM | – | – |
| CC(C)c1ccc(S(=O)(=O)N2CCN(c3nc(-c4ccccc4)cs3)CC2C(=O)NCc2ccc(C(F)(F)F)cc2)cc1 (stereo not drawn) [Example 135, 1-(4-isopropyl-benzenesulfonyl)-4-(4-phenyl-thiazol-2-yl)-piperazine-2-carboxylic acid 4-trifluoromethyl-benzylamide] | – | – | > 1 µM | > 1 µM |
| CC(=O)N1CCN(S(=O)(=O)c2ccc(C(C)C)cc2)C(C(=O)NCc2ccc(Cl)cc2)C1 (stereo not drawn) [Example 35, 4-acetyl-1-(4-isopropyl-benzenesulfonyl)-piperazine-2-carboxylic acid 4-chloro-benzylamide] | – | – | > 1 µM | > 1 µM |
| CC(=O)N1CCN(S(=O)(=O)c2ccc(N)cc2)C(C(=O)NCc2ccc(C(F)(F)F)cc2)C1 (stereo not drawn) [Example 93, 4-acetyl-1-(4-amino-benzenesulfonyl)-piperazine-2-carboxylic acid 4-trifluoromethyl-benzylamide hydrochloride] | – | – | > 1 µM | > 1 µM |
| CC(C)c1ccc(CNC(=O)[C@H]2CN(C(=O)C(N)=O)CCN2S(=O)(=O)c2ccc(C(F)(F)F)cc2)cc1 [Example 308, (R)-4-aminooxalyl-1-(4-trifluoromethyl-benzenesulfonyl)-piperazine-2-carboxylic acid 4-isopropyl-benzylamide] | – | – | > 1 µM | > 1 µM |
| Cc1cc(=O)nc2sc(N3CCN(S(=O)(=O)c4ccc(OC(F)(F)F)cc4)[C@@H](C(=O)NCc4ccc(OC(F)F)cc4)C3)nn12 [Example 1027, (R)-4-(5-methyl-7-oxo-7H-[1,3,4]thiadiazolo[3,2-a]pyrimidin-2-yl)-1-(4-trifluoromethoxy-benzenesulfonyl)-piperazine-2-carboxylic acid 4-difluoromethoxy-benzylamide] | < 0.1 µM | < 0.1 µM | – | – |
| O=C(NCc1ccc(OC(F)(F)F)cc1)[C@H]1CN(c2nc3nc(OC(F)F)ncc3s2)CCN1S(=O)(=O)c1ccc(OC(F)(F)F)cc1 [Example 1087, (R)-4-(5-difluoromethoxy-thiazolo[4,5-d]pyrimidin-2-yl)-1-(4-trifluoromethoxy-benzenesulfonyl)-piperazine-2-carboxylic acid 4-trifluoromethoxy-benzylamide] | < 0.1 µM | < 0.1 µM | – | – |
| CCCc1ccc(S(=O)(=O)N2CCN(C(C)=O)C[C@@H]2C(=O)NCc2ccc(CC)cc2)cc1 [Example 247, (R)-4-acetyl-1-(4-propyl-benzenesulfonyl)-piperazine-2-carboxylic acid 4-ethyl-benzylamide] | – | – | < 0.1 µM | 0.1 to 1 µM |
| CCCc1ccc(CNC(=O)[C@H]2CN(c3nc(C(F)(F)F)c(C(=O)OCC)s3)CCN2S(=O)(=O)c2ccc(OC(F)(F)F)cc2)cc1 [Example 444, 2-[(R)-3-(4-propyl-benzylcarbamoyl)-4-(4-trifluoromethoxy-benzenesulfonyl)-piperazin-1-yl]-4-trifluoromethyl-thiazole-5-carboxylic acid ethyl ester] | – | – | 0.1 to 1 µM | 0.1 to 1 µM |
| CCC(F)(F)c1ccc(CNC(=O)[C@H]2CN(C(=O)Nc3cc(C)no3)CCN2S(=O)(=O)c2ccc(OC(F)(F)F)cc2)cc1 [Example 528, (R)-4-(4-trifluoromethoxy-benzenesulfonyl)-piperazine-1,3-dicarboxylic acid 3-[4-(1,1-difluoro-propyl)-benzylamide] 1-[(3-methyl-isoxazol-5-yl)-amide]] | – | – | < 0.1 µM | 0.1 to 1 µM |
